From patent US10086335B2, “Composition and method for biofouling inhibition of membrane separation device” (Ecolab USA Inc., priority 2013, dated 2018) come the findings set out here.

SMILES strings stand for the structures.

Series [1] in a line: Total chlorine and free chlorine concentration by DPD method. The format is physicochemical. To be noted: for free chlorine (FRC) concentration: sulfamic acid:sodium hypochlorite 1.2:1, pH >12. An excerpt: The total chlorine concentration (amount) can be detected according to the following method. The combined chlorine can oxidize the iodide into iodine. The iodine and free chlorine can react with DPD (N,N-Diethyl-p-phenylenediamine) to form a red substance, and which can be used to represent the concentration of the total chlorine (using the absorbance obtained at 530 nm measurement to represent the concentration of total chlorine). The above free chlorine concentration (amount) may be determined by the following method. The free chlorine which may exist in the form of hypochlorous acid or ions of hypochlorite can react with DPD (N, N-Diethyl-p-phenylenediamine) indicator rapidly to form a pink-colored substance, and the strength of such color can be used to indicate the amount of free chlorine, for example the concentration of free chlorine is determined by the measurements of absorbance on 530 nm. The combined chlorine concentration in water is calculated by subtracting free chlorine concentration from total chlorine concentration (i.e., TRC-FRC). In the present invention, TRC and FRC are measured for example by HACH DR2800 spectrophotometer.
In order to further reduce the FRC, the second stabilizer ammonium sulfate was used in the present example. In the present example, 67 g sodium hypochlorite and 13 g sulfamic acid (sulfamic acid ≥99.5%, AR, Sinopharm Chemical Reagent Co. Ltd.) were first added to 20 g water. The molar ratio between sulfamic acid and sodium hypochlorite was 1.2 to 1. Then the pH was adjusted to more than 12 by sodium hydroxide. According to the addition amount of sodium hypochlorite, the different molar ratios of second stabilizer ammonium sulfates were added. After the solution was uniformly mixed, DPD and iodine were used to determine the TC concentration and DPD was used to determine the FRC concentration.
In the present example, the second stabilizer ammonium sulfate was used in dilute solution to research the reducing effect on FRC. In the present example, 67 g sodium hypochlorite and 13 g sulfamic acid (sulfamic acid ≥99.5%, AR, Sinopharm Chemical Reagent Co. Ltd.) were first added to 3020 g water. The molar ratio between sulfamic acid and sodium hypochlorite was 1.2 to 1. Comparing to the concentration of the sodium hypochlorite and sulfamic acid of the example 1, that of the example 2 was diluted to about 30 times. Then the pH was adjusted to more than 12 by sodium hydroxide. According to the addition amount of sodium hypochlorite, the different molar ratios of second stabilizer ammonium sulfates were added. After the solution was mixed uniformly, DPD and iodine were used to determine the TC concentration and DPD was used to determine the FRC concentration.

The test system of series [2] is floating bacteria in water. As to the kind of experiment: Bactericidal effect on the bacteria in water (Total Bacteria Count). Conditions: raw water; total chlorine 2 ppm and 10 ppm; 3 hours and 24 hours; FIG. 3. The protocol: This example is mainly focused on using the present method or combination to inhibit the floating bacteria in water. The raw water without adding any biocides was used as the control group. The total chlorine concentration in water was controlled at 2 ppm and 10 ppm, separately. Sodium hypochlorite and two kinds of stabilizers were added to the raw water and sample obtained was used as the experimental group (dual stabilizers). Moreover, the group wherein only sodium hypochlorite was added was the control experimental group 1 (Cl2) and the group wherein sodium hypochlorite and one stabilizer were added to the raw water was the control experimental group 2 (single stabilizer). In the control experimental group 1 and 2, the total chlorine concentrations were controlled at 2 ppm and 10 ppm, separately. The addition method of the above substances and the substances used were identical to the examples 1 or 2. […] After placing the control group, the control experimental group 1, 2 and the experimental group for 3 hours and 24 hours, the number of the bacteria in the water of these samples were determined and compared. The bacterial number was indicated by the Total Bacteria Count (sometimes abbreviated as TBC in the following description), which was determined by referencing the method of 3M™ Petrifilm™ Aerobic Count Plates.

As for `N.N.O=S(=O)(O)O` [second stabilizer, ammonium sulfate], the “free chlorine (FRC) concentration” value is “about 40 ppm” in series [1] (concentrated solution, 0.3 moles second stabilizer per 1 mole sodium hypochlorite, reduced from 1200 ppm, FIG. 1) and “about 20 ppm” in series [1] (dilute solution, 0.4 moles second stabilizer per 1 mole sodium hypochlorite, reduced from about 50 ppm, FIG. 2). Also, the “effect on total chlorine” value in series [1] (concentrated solution, 0.3 moles second stabilizer per 1 mole sodium hypochlorite, FIG. 1) is “without affecting the total chlorine”. The “effect on total chlorine amount” value in series [1] (dilute solution, 0.4 moles second stabilizer per 1 mole sodium hypochlorite, FIG. 2) is “without affecting the total chlorine amount”.

Turning to `OCl` [sodium hypochlorite], the “bactericidal effect (Total Bacteria Count)” value in series [2] is recorded as “strongest bactericidal effect”.
